Assay: Macrolactamisation (Trp/pyrroloindoline CO2H + Val NH2): HATU 1.2 equiv pre-activation, slow syringe-pump addition to Et3N (15 equiv; 1.2 equiv for 12), after TFA N-Boc removal
Details: CH2Cl2/DMF (10:1 to 40:1), 0.6 mM, 2 steps

SMILES: C=CC(C)(C)[C@@]12C[C@@H]3C(=O)N[C@@H](C(C)C)C(=O)Nc4ccccc4C(=O)N(c4ccccc41)[C@@H]2N3C(C)=O
- ring closure, yield over several steps (from C=CC(C)(C)[C@]12C[C@H](C(=O)O)N(C(C)=O)[C@H]1N(C(=O)c1ccccc1NC(=O)[C@@H](N)C(C)C)c1ccccc12, 12-membered ring, 37.0 h): 0%

SMILES: C=CC(C)(C)[C@@]12C[C@H]3C(=O)N[C@@H](C(C)C)C(=O)Nc4ccccc4C(=O)N(c4ccccc41)[C@@H]2N3C(C)=O [(S)-endo-40 -> L-Trp-regio-endo-4]
- ring closure, yield over several steps (from C=CC(C)(C)[C@]12C[C@@H](C(=O)O)N(C(C)=O)[C@H]1N(C(=O)c1ccccc1NC(=O)[C@@H](N)C(C)C)c1ccccc12, 12-membered ring, 22.0 h): 37%

SMILES: C=CC(C)(C)[C@]12C[C@H]3C(=O)N[C@@H](C(C)C)C(=O)Nc4ccccc4C(=O)N(c4ccccc41)[C@H]2N3C(C)=O [(S)-exo-40 -> L-Trp-regio-exo-4 (moderately pure, unstable)]
- ring closure, yield over several steps (from C=CC(C)(C)[C@@]12C[C@@H](C(=O)O)N(C(C)=O)[C@@H]1N(C(=O)c1ccccc1NC(=O)[C@@H](N)C(C)C)c1ccccc12, 12-membered ring, 15.0 h): 21%

SMILES: CC(=O)N[C@@H]1Cc2cn(c3ccccc23)C(=O)c2ccccc2NC(=O)[C@H](C(C)C)NC1=O [H-L-Val-(2-aminobenzoyl)-(N-indole)-Ac-D-Trp-OH]
- ring closure, yield over several steps (from CC(=O)N[C@H](Cc1cn(C(=O)c2ccccc2NC(=O)[C@@H](N)C(C)C)c2ccccc12)C(=O)O, 13-membered ring, 84.0 h): 14%

SMILES: C=CC(C)(C)[C@]12C[C@@H]3C(=O)N[C@@H](C(C)C)C(=O)Nc4ccccc4C(=O)N(c4ccccc41)[C@H]2N3C(C)=O [endo-40 -> D-Trp-regio-endo-4]
- ring closure, yield over several steps (from C=CC(C)(C)[C@@]12C[C@H](C(=O)O)N(C(C)=O)[C@@H]1N(C(=O)c1ccccc1NC(=O)[C@@H](N)C(C)C)c1ccccc12, 12-membered ring, 24.0 h): 61%
